Measurements published in ChEMBL document CHEMBL3046868, “Synthesis and biological activities of 4-trifluoromethylindole-3-acetic acid: a new fluorinated indole auxin” (2008).
The source made the active and inactive calls. No cut-off for these calls is given here.

Tests used:
[1] = tested on: Vigna mungo; experiment: Root formation-promoting activity in Vigna mungo (black gram) cuttings at 1 x 10^-4 M relative to IBA (reference value: 35 +/- 8%); type: functional
[2] = tested on: Vigna mungo; experiment: Induction of callus formation on Vigna mungo (black gram) seedlings at > 3 x 10^-3 M after 3 days; type: functional, organism-based
[3] = tested on: Brassica rapa subsp. pekinensis; experiment: Growth inhibition of Brassica rapa subsp. pekinensis (Chinese cabbage) hypocotyl at 1 x 10^-7 to 1 x 10^-4 M; type: functional
[4] = tested on: Vigna mungo; experiment: Ratio of compound activity to IBA activity for root formation-promoting activity in Vigna mungo (black gram) cuttings at 1 x 10^-4 M; type: functional
[5] = tested on: Brassica rapa subsp. pekinensis; experiment: Ratio of IAA activity to compound activity for growth inhibition of Brassica rapa subsp. pekinensis (Chinese cabbage) hypocotyl at 1 x 10^-7 to 1 x 10^-4 M; type: functional
[6] = tested on: Vigna mungo; experiment: Enhancement of lateral root formation in intact Vigna mungo (black gram) seedlings at 3 x 10^-4 M; type: functional, organism-based
[7] = tested on: Vigna mungo; experiment: Enhancement of hypocotyl swelling in intact Vigna mungo (black gram) seedlings at 3 x 10^-4 M; type: functional, organism-based
[8] = tested on: Brassica rapa subsp. pekinensis; experiment: Relative growth inhibitory activity of Brassica rapa subsp. pekinensis (Chinese cabbage) hypocotyl at 1 x 10^-7 to 1 x 10^-4 M
[9] = tested on: Vigna mungo; experiment: Enhancement of lateral root formation in intact Vigna mungo (black gram) seedlings at 3 x 10^-6 M; type: functional, organism-based
[10] = tested on: Vigna mungo; experiment: Induction of callus formation on Vigna mungo (black gram) seedlings at 3 x 10^-5 M after 3 days; type: functional, organism-based
[11] = tested on: Vigna mungo; experiment: Enhancement of hypocotyl swelling in intact Vigna mungo (black gram) seedlings at 3 x 10^-6 M; type: functional, organism-based
[12] = tested on: Vigna mungo; experiment: Enhancement of lateral root formation in intact Vigna mungo (black gram) seedlings at 1 x 10^-6 M; type: functional, organism-based
[13] = tested on: Vigna mungo; experiment: Enhancement of hypocotyl swelling in intact Vigna mungo (black gram) seedlings at 1 x 10^-6 M; type: functional, organism-based
[14] = tested on: Vigna mungo; experiment: Enhancement of hypocotyl swelling in intact Vigna mungo (black gram) seedlings at 1 x 10^-4 M; type: functional, organism-based
[15] = tested on: Vigna mungo; experiment: Enhancement of lateral root formation in intact Vigna mungo (black gram) seedlings at 1 x 10^-4 M; type: functional, organism-based

**Q.** For `O=C(O)CCCc1c[nH]c2ccccc12`, which Activity [1] is on record?
**A.** 100%

**Q.** `O=C(O)Cc1c[nH]c2cccc(C(F)(F)F)c12` was tested. Which Activity [1] did it give?
**A.** 156%

**Q.** And the Activity [2]?
**A.** Active

**Q.** And the “growth inhibition (GI)” value [3]?
**A.** Active

**Q.** What about the Ratio [4] of the same molecule?
**A.** 1.5

**Q.** And the Ratio [5]?
**A.** 6

**Q.** What about the Activity [6] of the same molecule?
**A.** Active

**Q.** And the Activity [7]?
**A.** Active

**Q.** For `Cc1cccc2[nH]cc(CC(=O)O)c12`, which “relative activity (%)” value [8] is on record?
**A.** 40%

**Q.** What about the Activity [1] of the same molecule?
**A.** 70%

**Q.** What about the Activity [9] of the same molecule?
**A.** Active

**Q.** What about the Activity [10] of the same molecule?
**A.** Active

**Q.** What about the Activity [11] of the same molecule?
**A.** Active

**Q.** Which results are given for `O=C(O)Cc1c[nH]c2cccc(Cl)c12`?
**A.** relative activity (%) [8]: 6%; Activity [1]: 384%; Activity [10]: Active; Activity [12]: Active; Activity [13]: Active

**Q.** `O=C(O)Cc1c[nH]c2ccccc12` [INDOLE-3-ACETIC ACID] was tested. Which Activity [14] did it give?
**A.** Active

**Q.** And the Activity [1]?
**A.** 36%

**Q.** What about the Activity [15] of the same molecule?
**A.** Active
